# Experimental data published in ChEMBL document CHEMBL1821577, “Discovery of GSK1997132B a novel centrally penetrant benzimidazole PPARγ partial agonist” (Bioorg Med Chem Lett, 2011).
# Legend:
# [1] = biological target: T1, Peroxisome proliferator-activated receptor gamma (Homo sapiens) (UniProt P37231); assay: Activity at human PPARgamma by luciferase reporter gene assay; parameters: concentration or dose not given beside the values
# T1 sequence (whole entry): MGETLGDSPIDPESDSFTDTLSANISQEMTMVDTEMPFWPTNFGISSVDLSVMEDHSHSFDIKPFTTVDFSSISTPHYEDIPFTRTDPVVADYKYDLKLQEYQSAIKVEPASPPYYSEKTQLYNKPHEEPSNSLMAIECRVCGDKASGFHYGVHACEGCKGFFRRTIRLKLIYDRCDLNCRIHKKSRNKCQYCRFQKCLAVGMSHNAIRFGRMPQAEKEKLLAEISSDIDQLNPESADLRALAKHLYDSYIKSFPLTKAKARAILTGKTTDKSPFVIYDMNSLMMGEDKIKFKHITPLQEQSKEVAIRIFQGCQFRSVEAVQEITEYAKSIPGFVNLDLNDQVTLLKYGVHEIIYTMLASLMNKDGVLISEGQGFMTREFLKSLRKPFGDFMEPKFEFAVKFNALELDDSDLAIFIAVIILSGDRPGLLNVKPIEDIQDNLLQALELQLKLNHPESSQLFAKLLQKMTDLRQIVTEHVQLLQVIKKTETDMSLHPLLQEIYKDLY
# [2] = biological target: T2, Peroxisome proliferator-activated receptor gamma (Homo sapiens, UniProt P37231); assay: Partial agonist activity at human PPARgamma by luciferase reporter gene assay; assay type: functional
# T2 sequence (P37231 whole entry): T1 sequence (whole entry)
# Liver microsomes [3] = assay: Intrinsic clearance in human liver microsome; assay type: ADME
# Brain = assay: Drug uptake in rat brain at steady state at 2 mg/kg/h, iv; assay type: ADME, organism-based; parameters: route intravenous; settings: in vivo, read-out: Drug uptake
# [4] = Ratio of drug uptake in brain to blood at steady state in rat at 2 mg/kg/h, iv; assay type: ADME, organism-based; parameters: route intravenous
# Liver microsomes [5] = assay: Intrinsic clearance in rat liver microsome; assay type: ADME
# Rattus norvegicus = assay: Blood clearance at steady state in rat at 2 mg/kg/h, iv; assay type: ADME, organism-based; parameters: route intravenous; settings: in vivo
Compound,Activity [1],EC50 [2],also measured
CC[C@@H](NC(=O)c1ccc2c(c1)ncn2Cc1ccccc1S(C)(=O)=O)c1ccccc1,73%,398 nM,
CC[C@@H](NC(=O)c1ccc2c(c1)ncn2Cc1ncccc1Cl)c1ccccc1,81%,15.8 nM,
CC[C@@H](NC(=O)c1ccc2c(c1)ncn2Cc1ccccc1F)c1ccccc1,80%,7.94 nM,
CC[C@@H](NC(=O)c1ccc2c(c1)nc(C)n2Cc1ccc(C(N)=O)cc1)c1ccccc1,17%,10000 nM,
CC[C@@H](NC(=O)c1ccc2c(c1)nc(C)n2Cc1ccccc1Cl)c1ccccc1,80%,50.1 nM,
CCC(=O)c1nc2cc(C(=O)N[C@H](CC)c3ccccc3)ccc2n1Cc1ccc(Cl)c(Cl)c1,75%,79.4 nM,
CC[C@@H](NC(=O)c1ccc2c(c1)nc(C)n2Cc1ccc(Cl)c(Cl)c1)c1ccccc1,75%,39.8 nM,
CC[C@@H](NC(=O)c1ccc2c(c1)ncn2Cc1ccncc1)c1ccccc1,63%,794 nM,
CC[C@@H](NC(=O)c1ccc2c(c1)ncn2Cc1ccccc1OC)c1ccccc1,75%,5.01 nM,

# The next lines start with results.
Activity [1],EC50 [2],Compound,also measured
21%,251 nM,CC[C@H](NC(=O)c1ccc2c(c1)nc(C)n2Cc1ccc(Cl)c(Cl)c1)c1ccccc1,
74%,0.794 nM,CC[C@@H](NC(=O)c1ccc2c(c1)ncn2Cc1ccc(Cl)cc1F)c1ccccc1,
74%,501 nM,CC[C@@H](NC(=O)c1ccc2c(c1)ncn2Cc1cccnc1)c1ccccc1,
66%,31.6 nM,CC[C@@H](NC(=O)c1ccc2c(c1)nc(C)n2Cc1ccc(Cl)cc1)c1ccccc1,
76%,79.4 nM,CC[C@@H](NC(=O)c1ccc2c(c1)nc(C)n2Cc1cccc(Cl)c1)c1ccccc1,
58%,126 nM,CC[C@@H](NC(=O)c1ccc2c(c1)nc(C1CC1)n2Cc1ccc(Cl)c(Cl)c1)c1ccccc1,
73%,1.58 nM,CC[C@@H](NC(=O)c1ccc2c(c1)ncn2Cc1ccc(F)cc1F)c1ccccc1,CL (Liver microsomes [3]): 0.5 mL/min/g; concentration (Brain): 455 nM; Kp [4]: 0.59; CL (Liver microsomes [5]): 3.7 mL/min/g; clearance (Rattus norvegicus): 107 mL/min/kg
